The IC50 is the point on the concentration scale where inhibition reaches its midpoint. Higher therefore signals weaker potency in that assay.

One assay addresses Dual specificity protein kinase TTK (Homo sapiens) (UniProt P33981). The experiment in a line: Inhibition of FLAG-tagged Mps1 autophosphorylation in human RERF-LC-AI cells expressing Tet-suppressible promotor after 3 hrs by immunoblotting.
`CCOc1nc(Nc2ccc(C(N)=O)cc2)cc(N)c1C#N` showed an IC50 of 1800 nM.

A further assay shares this target. The experiment in a line: Inhibition of Mps1-mediated p38 MAPK phosphorylation after 90 mins by DELFIA assay.
As to `CCOc1nc(Nc2ccccc2)cc(N)c1C#N`, the IC50 came out at 228 nM.
Still for that read-out and setting: with `CCOc1nc(Nc2ccc(C(N)=O)cc2)cc(N)c1C#N` the figure was 37 nM.
Molecule `CCOc1nc(NC(=O)Cc2ccccc2)cc(N)c1C#N` [N-(4-Amino-5-cyano-6-ethoxypyridin-2-yl)-2-phenylacetamide] had an IC50 of 4200 nM. This IC50 is about 110-fold higher than that of the molecule before.
The molecule `CCOc1nc(C(=O)NCc2ccccc2)cc(N)c1C#N` [4-Amino-5-cyano-6-ethoxy-pyridine-2-carboxylic acid benzylamide] registered an IC50 of 529 nM.
Same read-out and setting: with `CCOc1nc(C(=O)NCc2ccc(S(C)(=O)=O)cc2)cc(N)c1C#N` [4-amino-5-cyano-6-ethoxy-N-[(4-methanesulfonylphenyl)methyl]pyridine-2-carboxamide] the figure was 568 nM; with `CCOc1nc(NCCc2ccccc2)cc(N)c1C#N`, 3970 nM.

These data come from BindingDB's records for doi:10.1021/ml3000879 (2012).
